Laboratory results published in patent publication US20130157954A1, “METHODS FOR TREATMENT OR PROPHYLAXIS OF KIDNEY OR LIVER DYSFUNCTION” (NPS PHARMACEUTICALS, INC., priority 2010, published 2013).

Experiment: Example 2: liver biomarkers (albumin, gamma glutamyl transferase, total bilirubin, ALT, AST, ALP) in short bowel syndrome patients, every four weeks for 24 weeks; also sorted by >10% change from baseline
Type: in vivo, Human
Experimental: To further confirm the results of Example 1, a further study was conducted involving more individuals and additional diagnostic biomarkers. Human patients with short bowel syndrome were divided into two groups: a control group (43 total individuals) to receive placebo, and an experimental group (42 total individuals) to receive teduglutide at 0.05 mg/kg/day throughout the study. Patients were treated by subcutaneous injection of placebo or the appropriate dose of teduglutide. Known biomarkers of liver function were monitored every four weeks, for 24 weeks. The liver biomarkers tested included albumin, gamma glutamyl transferase, total bilirubin, ALT and AST and ALP. Before administration of placebo or teduglutide, diagnostic biomarker levels were tested to establish a baseline for each individual.
To determine the effect of GLP-2 on the levels of the diagnostic biomarkers, the average level of each biomarker was measured for the placebo and teduglutide treated groups for each visit. Furthermore, the average change from baseline was calculated using the established baseline values. For FIGS. 17-28, p-values were calculated using the t-test.
P values are provided, which were calculated for each distribution of biomarker changes for each week using the chi-squared test.

[1] = Endpoint (last assessment after start of treatment), 0.05 mg/kg/d, m = 42
[2] = Endpoint (last assessment after the start of treatment), 0.05 mg/kg/d

Compound: CC[C@H](C)[C@H](NC(=O)[C@H](Cc1ccccc1)NC(=O)[C@H](CC(=O)O)NC(=O)[C@H](CCCNC(=N)N)NC(=O)[C@H](C)NC(=O)[C@H](C)NC(=O)[C@H](CC(C)C)NC(=O)[C@H](CC(N)=O)NC(=O)[C@H](CC(=O)O)NC(=O)[C@H](CC(C)C)NC(=O)[C@@H](NC(=O)[C@@H](NC(=O)[C@H](CC(N)=O)NC(=O)[C@H](CCSC)NC(=O)[C@H](CCC(=O)O)NC(=O)[C@H](CC(=O)O)NC(=O)[C@H](CO)NC(=O)[C@H](Cc1ccccc1)NC(=O)[C@H](CO)NC(=O)CNC(=O)[C@H](CC(=O)O)NC(=O)CNC(=O)[C@@H](N)Cc1c[nH]cn1)[C@@H](C)O)[C@@H](C)CC)C(=O)N[C@@H](CC(N)=O)C(=O)N[C@@H](Cc1c[nH]c2ccccc12)C(=O)N[C@@H](CC(C)C)C(=O)N[C@H](C(=O)N[C@@H](CCC(N)=O)C(=O)N[C@H](C(=O)N[C@@H](CCCCN)C(=O)N[C@H](C(=O)N[C@H](C(=O)N[C@@H](CC(=O)O)C(=O)O)[C@@H](C)O)[C@@H](C)CC)[C@@H](C)O)[C@@H](C)CC [teduglutide]
- level of diagnostic biomarkers elevated in liver dysfunction vs placebo cohort (0.05 mg/kg/day, Table 3, FIGS. 17-20 and 23-28): lower level, on average
- likelihood of >10% decrease in liver biomarkers vs placebo (0.05 mg/kg/day, Table 4): more likely to experience a >10% decrease
- likelihood of >10% increase in liver biomarkers vs placebo (0.05 mg/kg/day, Table 4): less likely to experience a >10% increase
- measured level of albumin relative to placebo cohort (0.05 mg/kg/day, as treatment progressed, FIGS. 21 and 22): became elevated
- ALT: subjects Within 10% of Baseline [1]: 12 (28.6%) n (%)
- ALT: subjects with >10% decrease from Baseline [1]: 25 (59.5%) n (%)
- ALT: subjects with >10% increase from Baseline [1]: 5 (11.9%) n (%)
- AST: subjects Within 10% of Baseline [1]: 11 (26.2%) n (%)
- AST: subjects with >10% decrease from Baseline [1]: 25 (59.5%) n (%)
- AST: subjects with >10% increase from Baseline [1]: 6 (14.3%) n (%)
- Albumin: subjects Within 10% of Baseline [1]: 40 (95.2%) n (%)
- Albumin: subjects with >10% decrease from Baseline [1]: 2 (4.8%) n (%)
- Albumin: subjects with >10% increase from Baseline [1]: 0 n (%)
- Alkaline Phosphatase: subjects Within 10% of Baseline [1]: 12 (28.6%) n (%)
- Alkaline Phosphatase: subjects with >10% decrease from Baseline [1]: 24 (57.1%) n (%)
- Alkaline Phosphatase: subjects with >10% increase from Baseline [1]: 6 (14.3%) n (%)
- Bilirubin: subjects Within 10% of Baseline [1]: 8 (19.0%) n (%)
- Bilirubin: subjects with >10% decrease from Baseline [1]: 27 (64.3%) n (%)
- Bilirubin: subjects with >10% increase from Baseline [1]: 7 (16.7%) n (%)
- ALKALINE PHOSPHATASE Change from Baseline Median [2]: −22 U/L
- ALT Change from Baseline, Max [2]: 21 U/L
- ALT Change from Baseline, Median [2]: −4 U/L
- ALT Change from Baseline, Min [2]: −60 U/L
- ALT Observed Value, Max [2]: 149 U/L
- ALT Observed Value, Mean [2]: 31.0 U/L
- ALT Observed Value, Min [2]: 7 U/L
- AST Change from Baseline, Max [2]: 14 U/L
- AST Change from Baseline, Mean [2]: −5.4 U/L
- AST Change from Baseline, Median [2]: −3 U/L
- AST Change from Baseline, Min [2]: −47 U/L
- AST Observed Value, Max [2]: 77 U/L
- AST Observed Value, Mean [2]: 27.0 U/L
- AST Observed Value, Median [2]: 24 U/L
- AST Observed Value, Min [2]: 11 U/L
- Albumin Change from Baseline, Max [2]: 3 g/L
- Albumin Change from Baseline, Mean [2]: -0.5 g/L
- Albumin Change from Baseline, Median [2]: 0 g/L
- Albumin Change from Baseline, Min [2]: -8 g/L
- Albumin Observed Value, Max [2]: 48 g/L
- Albumin Observed Value, Median [2]: 42 g/L
- Albumin Observed Value, Min [2]: 33 g/L
- Alkaline Phosphatase Change from Baseline, Max [2]: 33 U/L
- Alkaline Phosphatase Change from Baseline, Min [2]: −122 U/L
- Alkaline Phosphatase Observed Value, Max [2]: 328 U/L
- Alkaline Phosphatase Observed Value, Min [2]: 49 U/L
- Bilirubin Change from Baseline, Max [2]: 3.4 µmol/L
- Bilirubin Change from Baseline, Min [2]: -26.1 µmol/L
- Bilirubin Observed Value, Max [2]: 31.3 µmol/L
- Bilirubin Observed Value, Min [2]: 2.5 µmol/L
- Gamma Glutamyl Transferase Change from Baseline, Max [2]: 46 U/L
- Gamma Glutamyl Transferase Change from Baseline, Median [2]: −6 U/L
- Gamma Glutamyl Transferase Change from Baseline, Min [2]: −144 U/L
- Gamma Glutamyl Transferase Observed Value, Max [2]: 228 U/L
- Gamma Glutamyl Transferase Observed Value, Median [2]: 42 U/L
- Gamma Glutamyl Transferase Observed Value, Min [2]: 7 U/L
- ALKALINE PHOSPHATASE Change from Baseline Median (Week 2, 0.05 mg/kg/d): −8 U/L
- ALT Change from Baseline, Max (Week 2, 0.05 mg/kg/d): 48 U/L
- ALT Change from Baseline, Mean (Week 2, 0.05 mg/kg/d): −8.9 U/L
- ALT Change from Baseline, Median (Week 2, 0.05 mg/kg/d): −5.5 U/L
- ALT Change from Baseline, Min (Week 2, 0.05 mg/kg/d): −58 U/L
- ALT Observed Value, Max (Week 2, 0.05 mg/kg/d): 142 U/L
- ALT Observed Value, Min (Week 2, 0.05 mg/kg/d): 9 U/L
- AST Change from Baseline, Max (Week 2, 0.05 mg/kg/d): 22 U/L
- AST Change from Baseline, Mean (Week 2, 0.05 mg/kg/d): −3.6 U/L
- AST Change from Baseline, Median (Week 2, 0.05 mg/kg/d): −3 U/L
- AST Change from Baseline, Min (Week 2, 0.05 mg/kg/d): −21 U/L
- AST Observed Value, Max (Week 2, 0.05 mg/kg/d): 78 U/L
- AST Observed Value, Mean (Week 2, 0.05 mg/kg/d): 29.0 U/L
- AST Observed Value, Min (Week 2, 0.05 mg/kg/d): 11 U/L
- Albumin Change from Baseline, Max (Week 2, 0.05 mg/kg/d): 3 g/L
- Albumin Change from Baseline, Mean (Week 2, 0.05 mg/kg/d): -0.9 g/L
- Albumin Change from Baseline, Median (Week 2, 0.05 mg/kg/d): -1 g/L
- Albumin Change from Baseline, Min (Week 2, 0.05 mg/kg/d): -5 g/L
- Albumin Observed Value, Max (Week 2, 0.05 mg/kg/d): 47 g/L
- Albumin Observed Value, Median (Week 2, 0.05 mg/kg/d): 42 g/L
- Albumin Observed Value, Min (Week 2, 0.05 mg/kg/d): 35 g/L
- Alkaline Phosphatase Change from Baseline, Max (Week 2, 0.05 mg/kg/d): 27 U/L
- Alkaline Phosphatase Change from Baseline, Min (Week 2, 0.05 mg/kg/d): −76 U/L
- Alkaline Phosphatase Observed Value, Max (Week 2, 0.05 mg/kg/d): 298 U/L
- Alkaline Phosphatase Observed Value, Min (Week 2, 0.05 mg/kg/d): 53 U/L
- Bilirubin Change from Baseline, Max (Week 2, 0.05 mg/kg/d): 8.6 µmol/L
- Bilirubin Change from Baseline, Min (Week 2, 0.05 mg/kg/d): -18.2 µmol/L
- Bilirubin Observed Value, Max (Week 2, 0.05 mg/kg/d): 57.4 µmol/L
- Bilirubin Observed Value, Min (Week 2, 0.05 mg/kg/d): 2.4 µmol/L
- Gamma Glutamyl Transferase Change from Baseline, Max (Week 2, 0.05 mg/kg/d): 117 U/L
- Gamma Glutamyl Transferase Change from Baseline, Mean (Week 2, 0.05 mg/kg/d): 7.4 U/L
- Gamma Glutamyl Transferase Change from Baseline, Median (Week 2, 0.05 mg/kg/d): 2.5 U/L
- Gamma Glutamyl Transferase Change from Baseline, Min (Week 2, 0.05 mg/kg/d): −48 U/L
- Gamma Glutamyl Transferase Observed Value, Max (Week 2, 0.05 mg/kg/d): 279 U/L
- Gamma Glutamyl Transferase Observed Value, Min (Week 2, 0.05 mg/kg/d): 11 U/L
- ALT: subjects Within 10% of Baseline (Week 2, 0.05 mg/kg/d, m = 40): 10 (25.0%) n (%)
- ALT: subjects with >10% decrease from Baseline (Week 2, 0.05 mg/kg/d, m = 40): 23 (57.5%) n (%)
- ALT: subjects with >10% increase from Baseline (Week 2, 0.05 mg/kg/d, m = 40): 7 (17.5%) n (%)
- AST: subjects Within 10% of Baseline (Week 2, 0.05 mg/kg/d, m = 40): 15 (37.5%) n (%)
- AST: subjects with >10% decrease from Baseline (Week 2, 0.05 mg/kg/d, m = 40): 20 (50.0%) n (%)
- AST: subjects with >10% increase from Baseline (Week 2, 0.05 mg/kg/d, m = 40): 5 (12.5%) n (%)
- Albumin: subjects Within 10% of Baseline (Week 2, 0.05 mg/kg/d, m = 40): 37 (92.5%) n (%)
- Albumin: subjects with >10% decrease from Baseline (Week 2, 0.05 mg/kg/d, m = 40): 3 (7.5%) n (%)
- Albumin: subjects with >10% increase from Baseline (Week 2, 0.05 mg/kg/d, m = 40): 0 n (%)
- Alkaline Phosphatase: subjects Within 10% of Baseline (Week 2, 0.05 mg/kg/d, m = 40): 19 (47.5%) n (%)
- Alkaline Phosphatase: subjects with >10% decrease from Baseline (Week 2, 0.05 mg/kg/d, m = 40): 15 (37.5%) n (%)
- Alkaline Phosphatase: subjects with >10% increase from Baseline (Week 2, 0.05 mg/kg/d, m = 40): 6 (15.0%) n (%)
